Assay results: US20250268816A1, “EXTENDED-RELEASE FORMULATION CONTAINING CRESOL” (UNIVERSITY OF MARYLAND, BALTIMORE, priority 2022, published 2025)
Where two headings read alike, the source gives them in different places.

Experiments:
[1] = ART838 release study from ISFGSs into PBS; type: physicochemical
Source text: ISFGS turbidity increased with time and with ART838 loading content, and all loaded ISDs […]. The diffusion of the solvents from the depot in the first week was not sufficient for ART838 to diffuse out of the ISFGS due to the hydrophobic interactions between ART838 and PLGA/PLA polymers. The ISFGS system is able to continually release ART838 for 1 month and the ISD form can be tuned to control ART838 release profiles.
This delayed release profile might be beneficial to potentiate antitumor responses initiated by other drug agents. Therefore it is contemplated that the polymeric formulations of the ISFGS system can be altered to tune the ART838 release curve, aiming to modulate the initiation of release while maintaining the stable release observed here. In addition, the ISFGSs can be used with other dimeric ART analogs or other drug compounds, both for administration and for research purposes, for example to analyze cytotoxicity and bioeffects of the loaded ISFGSs using in vitro cell culture models.

[2] = in mice; cited from earlier work
[3] = in vivo; cited from earlier work
diabetic rats = experiment: Blood glucose level lowering after subcutaneous injection in diabetic rats; type: in vivo; settings: subcutaneously injected insulin, 5 IU, within 4 h after the injection
Source text: The effect of subcutaneously injected insulin as the therapeutic agent component of the subject drug delivery system on diabetic rats was also studied. More specifically, the effect of an insulin depot prepared and delivered in accordance with the teachings of the subject invention on the cumulative release of insulin was studied.

[4] = In vitro cumulative release of insulin from ISFGSs; type: physicochemical; settings: for time of continuous insulin release: from ISFGSs
Source text: The effect of formulation volume in vitro was also studied.

[5] = Drug release study from the in situ gelling system (ISFGSs); type: physicochemical
Procedure: FIG. 29 is a graph showing the results of a dexamethasone release study using 6 wt % Dex and 24 wt % Polymer 80 μL.
FIGS. 30A and 30B are graphs showing the effect of polymer composition on the cumulative release of remdesivir from ISFGSs; 3 wt % 80 and 160 uL-24 wt %.
FIGS. 31A and 31B are graphs showing the effect of polymer composition on the cumulative release of GS-441524 from 80 μL of ISFGSs.
FIGS. 32A and 32B are graphs showing the effect of polymer composition on the cumulative release of GS-441524 from 160 μL of ISFGSs.
FIG. 33A and FIG. 33B are a set of graphs showing the effect of polymer composition and solution volume on the cumulative release of artemisinin from ISFGSs.
FIGS. 37A and 37B are graphs showing the cumulative release of gilteritinib from ISFGSs: Gilteritinib 4 wt % Release 80 μL PLGA 50/50 depots.

[6] = system: feline infectious peritonitis (FIP); settings: cited from earlier work
[7] = human patients; cited from earlier work

release from the in situ gelling system (in words) [5]	Molecule	half-life [3] [min]	time of continuous insulin release [4] [days]	also measured
–	C[C@@H]1CCC2[C@@H](C)[C@@H](CC(COP(=O)(Oc3ccccc3)Oc3ccccc3)C[C@H]3O[C@@H]4O[C@@]5(C)CCC6[C@H](C)CCC([C@H]3C)[C@]64OO5)O[C@@H]3O[C@@]4(C)CCC1[C@@]23OO4 (stereo partly drawn) [ART838]	–	–	time of continual ART838 release from the ISFGS system [1]: 1 month; half-life [2]: 191 min
–	CCC(CC)COC(=O)[C@H](C)N[P@](=O)(OC[C@H]1O[C@@](C#N)(c2ccc3c(N)ncnn23)[C@H](O)[C@@H]1O)Oc1ccccc1 [Remdesivir]	53.4	–	–
–	insulin	4 to 6	7	blood glucose level (diabetic rats): about 100 mg·dL^−1
sustained release	N#C[C@@]1(c2ccc3c(N)ncnn23)O[C@H](CO)[C@@H](O)[C@H]1O [GS-441524]	–	–	activity against FIP in cell culture (in words) [6]: equivalent; half-life [7]: around 24 hours
sustained release	C[C@@H]1CC[C@H]2[C@@H](C)C(=O)O[C@@H]3O[C@@]4(C)CC[C@@H]1[C@]32OO4 [artemisinin]	–	–	–
–	Degludec	–	7	relative insulin release rate (in words) ([4]; comparison between ISFGS formulations): slower
